According to PMC11267547, “Advancing drug discovery through assay development: a survey of tool compounds within the human solute carrier superfamily” (Frontiers in Pharmacology, 2024):
One block for each compound: values may come before it.

Legend:
[1] = target: SLC2A9 (Homo sapiens, UniProt Q9NRM0); experiment: Membrane potential dye-based assay, HEK293 cells stably expressing isoform-1 or -2 of SLC2A9 vs mock; type: cell-based; settings: SLC2A9 isoform-1 or -2 cells compared with non-transduced (mock) cells
Experimental: FLIPR Membrane Potential Blue Dye was used to detect the compound activities for those membrane transporters that are electrogenic or whose activity is associated with changes in membrane potential, as previously described ([Jensen and BräunerOsborne, 2004]). In brief, cells are seeded at cell line-specific density in black clear-bottom poly-D-Lysine-coated 384-well plates (Greiner Bio-One) in DMEM high-glucose medium with 10% FBS, 1% P/S, and 2 mM UltraGlutamine I (25 µL/well). Furthermore, 24 h after seeding, the culture medium is removed, and the cells are loaded with 20 µL/well of 0.5 X FMP Blue Dye in assay buffer (modified Tyrode’s buffer, 130 mM NaCl, 5 mM KCl, 1 mM MgCl2, 2 mM CaCl2, 5 mM NaHCO3, and 20 mM HEPES pH 7.4). The plates are subsequently incubated for at least 30 min at room temperature in the dark. Then, 10 µL/well of test compounds and controls is added at defined concentrations (0.5% DMSO final conc.) in the FLIPR TETRA instrument (Molecular Devices), and emitted fluorescence is recorded using a λexc 510–545-nm/λem 565–625-nm filter. The dose–response curves for the 19 compounds were prepared starting from 3 µM (final top concentration), the half-log serial dilution factor. For data analysis, Genedata Screener 19.0 software was used.

[2] = system: SLC28A2 (CNT2); experiment: Impedance-based TRACT assay, HEK293–JumpIn–SLC28A2 cells, adenosine response; type: cell-based, human; settings: 31.6 µM pretreatment, non-induced (-dox) cells
[3] = target: T1, ENT1 (SLC29A1) (Homo sapiens, UniProt Q99808); experiment: Displacement assay with [3H]NBTI on human erythrocyte membranes; type: binding; settings: [3H]NBTI displacement on erythrocyte membranes and TRACT assay (Figure 1E, Supplementary Figure S1)
T1 construct: from tissue; host or cells: human erythrocyte membranes
Experimental: Displacement assay with [3H]NBTI on human erythrocyte membranes expressing ENT1 (SLC29A1) was performed at 25°C, as described previously ([Vlachodimou et al., 2020]).

[4] = target: T2, SLC1A5 (Homo sapiens, UniProt Q15758); experiment: AspSnFR biosensor assay, asparagine uptake in HEK293 cells; type: cell-based; settings: cells pretreated with 50 µM
T2 construct: host or cells: HEK293 expressing AspSnFR, transiently transfected with gpASNase1
Experimental: HEK293 cells expressing AspSnFR were transiently transfected with EBPF-gpASNase1, trypsinized, and resuspended in 10% dialyzed FCS/PBS. Post-treatment with test compounds or vehicle, varying concentrations of asparagine were added. After a 30-min incubation at room temperature, flow cytometry analysis was performed using the BD LSR Fortessa X-20, following the protocol previously described ([Hellweg et al., 2024]).

[5] = system: all proteins (SLCs and non-SLCs); experiment: Selectivity entropy score against all proteins (S_other); parameters: species or system human
Experimental: (§1) To assess the selectivity, a selectivity entropy score ([Uitdehaag and Zaman, 2011]) was implemented in KNIME. The entropy score was calculated twice for each compound, first against all SLCs (S_SLCs) and then against all proteins (S_other). Ideally, a low entropy value indicates a high selectivity of the inhibitor. However, as the inhibitors were not tested on a full panel of targets, but often only against one to three proteins, a low entropy value might not reflect its true selectivity. Therefore, Pareto ranking was performed using the corresponding node from the Erlwood KNIME open-source cheminformatics KNIME community extension. This ranking minimizes S_SLCs and S_other while maximizing the activity value and the count of SLCs the inhibitor was tested on.

[6] = system: MPC2; parameters: method as in GtoPdb 3023, PubMed 35278701; settings: negative logarithm of the Molar value of IC50, Ki, EC50, and Kd values; ref GtoPdb 3023, PubMed 35278701; cited from earlier work
[7] = system: all SLCs; experiment: Selectivity entropy score against all SLCs (S_SLCs); parameters: species or system human; settings: selectivity entropy score for all activity values against SLCs
Experimental: as §1

[8] = system: GPR35; parameters: method as in ChEMBL; settings: negative logarithm of the Molar value; ref ChEMBL; cited from earlier work
[9] = system: PDE10A; parameters: method as in ChEMBL; settings: negative logarithm of the Molar value; ref ChEMBL; cited from earlier work
[10] = system: PDE5A; parameters: method as in ChEMBL; settings: negative logarithm of the Molar value; ref ChEMBL; cited from earlier work
[11] = system: PDE1C; parameters: method as in ChEMBL; settings: negative logarithm of the Molar value; ref ChEMBL; cited from earlier work

T1 sequence (Q99808 whole entry): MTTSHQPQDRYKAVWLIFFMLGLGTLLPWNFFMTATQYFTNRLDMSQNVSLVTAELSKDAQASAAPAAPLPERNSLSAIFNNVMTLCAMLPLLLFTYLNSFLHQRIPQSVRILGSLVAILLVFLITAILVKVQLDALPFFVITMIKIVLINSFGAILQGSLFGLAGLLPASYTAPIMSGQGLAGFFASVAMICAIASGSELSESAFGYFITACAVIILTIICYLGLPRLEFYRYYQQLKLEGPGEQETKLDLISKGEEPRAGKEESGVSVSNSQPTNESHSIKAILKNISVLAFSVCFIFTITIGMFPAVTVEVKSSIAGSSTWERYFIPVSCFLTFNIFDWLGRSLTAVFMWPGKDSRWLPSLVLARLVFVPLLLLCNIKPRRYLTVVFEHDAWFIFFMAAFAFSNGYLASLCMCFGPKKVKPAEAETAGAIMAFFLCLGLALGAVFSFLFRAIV
T2 sequence (Q15758 whole entry): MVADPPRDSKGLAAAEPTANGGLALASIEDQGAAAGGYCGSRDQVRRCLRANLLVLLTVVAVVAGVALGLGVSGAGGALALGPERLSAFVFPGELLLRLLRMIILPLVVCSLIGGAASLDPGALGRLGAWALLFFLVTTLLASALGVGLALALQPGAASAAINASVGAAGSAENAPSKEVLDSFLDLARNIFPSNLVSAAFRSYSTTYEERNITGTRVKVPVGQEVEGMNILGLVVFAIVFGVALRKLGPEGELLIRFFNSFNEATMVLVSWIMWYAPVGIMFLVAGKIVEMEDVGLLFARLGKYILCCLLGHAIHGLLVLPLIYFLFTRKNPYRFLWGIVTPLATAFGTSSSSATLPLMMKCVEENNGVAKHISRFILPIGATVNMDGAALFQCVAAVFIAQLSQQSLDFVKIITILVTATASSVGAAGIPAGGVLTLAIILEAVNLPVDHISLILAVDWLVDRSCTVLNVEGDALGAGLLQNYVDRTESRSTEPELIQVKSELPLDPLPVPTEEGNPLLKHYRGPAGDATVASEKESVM
Chain of SLC2A9 (Q9NRM0 51-540 limits assumed): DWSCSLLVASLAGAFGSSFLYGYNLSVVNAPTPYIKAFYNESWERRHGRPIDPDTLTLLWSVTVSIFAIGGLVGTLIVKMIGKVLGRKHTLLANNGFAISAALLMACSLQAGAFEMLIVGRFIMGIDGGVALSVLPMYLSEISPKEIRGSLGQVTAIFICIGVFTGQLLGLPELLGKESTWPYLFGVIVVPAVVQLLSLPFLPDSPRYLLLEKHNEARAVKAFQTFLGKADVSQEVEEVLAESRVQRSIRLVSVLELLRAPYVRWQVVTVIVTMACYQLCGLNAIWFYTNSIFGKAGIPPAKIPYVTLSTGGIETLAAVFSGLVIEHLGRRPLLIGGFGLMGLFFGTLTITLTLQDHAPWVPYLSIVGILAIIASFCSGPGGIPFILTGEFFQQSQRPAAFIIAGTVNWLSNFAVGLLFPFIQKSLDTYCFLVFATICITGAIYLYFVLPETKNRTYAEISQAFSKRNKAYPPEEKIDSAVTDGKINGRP

SMILES: CCc1oc2ccccc2c1C(=O)c1cc(Br)c(O)c(Br)c1 [Benzbromarone]
- effect in SLC2A9 membrane potential dye assay vs mock cells [1]: unspecific SLC2A9-independent effect

- inhibition of SLC29A1 [3]: also inhibited SLC29A1
SMILES: Nc1ncnc2c1nc(NCc1ccc(-c3ccccc3)cc1)n2[C@@H]1O[C@H](CO)[C@@H](O)[C@H]1O [CNT2 inhibitor 1]
- selectivity for SLC28A2 in the TRACT assay [2]: not selective

- effect in SLC1A5 asparagine uptake assay [4]: no effect
SMILES: Cc1cccc(COc2ccccc2CN(CC[C@H](N)C(=O)O)Cc2ccccc2OCc2cccc(C)c2)c1 [V-9302]

SMILES: O=C1CN(/N=C/c2ccc([N+](=O)[O-])o2)C(=O)N1 [nitrofurantoin]
- S_other [5]: 0
- primary_SLC_act (MPC2) [6]: 5.48
- S_SLCs [7]: 0

SMILES: CCCOc1ccccc1-c1nc2nn[nH]c2c(=O)[nH]1 [zaprinast]
- other_targets_act (GPR35) [8]: 5.71
- other_targets_act (PDE10A) [9]: 4.66
- S_other [5]: 1.11
- primary_SLC_act (MPC2) [6]: 6.52
- S_SLCs [7]: 0
- other_targets_act (PDE5A) [10]: 5.95
- other_targets_act (PDE1C) [11]: 4.89
